How the values were obtained:
[1] = Example 2: two siblings given digoxin daily; assay type: in vivo, human; conditions: for improvement in pain levels and functionality: both patients
Procedure: Two siblings with severe rheumatoid arthritis characterized by progressive pain, stiffness and swelling of joints in spite of treatment with NSAIDs, narcotics, and immunosuppressants were given 0.125 mg of digoxin daily. No response was noted until the 5th day of treatment at which time both patients reported about a 10% improvement in pain levels and functionality, 2 weeks later the dose of digoxin was doubled to 0.25 mg and the patients both noted a proportional improvement in pain levels and functionality to 20%.

[2] = not given; remark: listed apart in the source
[3] = when used alone; cited from earlier work

## OC(Cn1cncn1)(Cn1cncn1)c1ccc(F)cc1F [fluconazole]
1 week of treatment, before digoxin
  change in the affected area: no change

## C[C@H]1O[C@@H](O[C@H]2[C@@H](O)C[C@H](O[C@H]3[C@@H](O)C[C@H](O[C@H]4CC[C@@]5(C)[C@H](CC[C@@H]6[C@@H]5C[C@@H](O)[C@]5(C)[C@@H](C7=CC(=O)OC7)CC[C@]65O)C4)O[C@@H]3C)O[C@@H]2C)C[C@H](O)[C@@H]1O [digoxin, 4-[(3S,5R,8R,9S,10S,12R,13S,14S,)-3-[(2S,4S,5R,6R)-5-[(2S,4S,5R,6R)-5-[(2S,4S,5R,6R)-4,5-dihydroxy-6-methyl-oxan-2-yl]oxy-4-hydroxy-6-methyl-oxan-2-yl]oxy-4-hydroxy-6-methyl-oxan-2-yl]oxy-12,14-dihydroxy-10,13-dimethyl-1,2,3,4,5,6,7,8,9,11,12,15,16,17-tetradecahydrocyclopenta[a]phenanthren-17-yl]-5H-furan-2-one]
[1]; 0.125 mg of digoxin daily, 5th day of treatment
  improvement in pain levels and functionality: ~10%
[1]; digoxin 0.125 mg then 0.25 mg
  side effects: No side effects
[1]; dose doubled to 0.25 mg 2 weeks later
  improvement in pain levels and functionality: 20%
0.125 mg of digoxin, within 3 days
  regression of wound area: about 20%
[2]; for one month, next monthly visit
  joint pain: abated
[2]; remained on 0.125 mg of digoxin, 2 months later, elbows and ankles, with return of joint pain
  psoriasis at follow up: mild recrudescence
[3]
  plasma digoxin concentration at which adverse reactions are rare: < 0.8 µg/L

## CN(Cc1cnc2nc(N)nc(N)c2n1)c1ccc(C(=O)N[C@@H](CCC(=O)O)C(=O)O)cc1 [Methotrexate]
[2]; Methotrexate 5-10 mg q week with calcipotriene, phototherapy and NSAIDs, prior 4 months
  effectiveness of prior therapy: moderately effective
